One experiment addresses PIK3CG (human) (UniProt P48736). Nature of the experiment: Assessment of PIK3CG Kinase Activity.
Another experiment addresses PIK3CA (human) (UniProt P42336). Nature of the experiment: Assessment of PIK3CA Kinase Activity.

SMILES strings stand for the structures.

Chain of PIK3CA (human) (P42336 whole entry, looked up): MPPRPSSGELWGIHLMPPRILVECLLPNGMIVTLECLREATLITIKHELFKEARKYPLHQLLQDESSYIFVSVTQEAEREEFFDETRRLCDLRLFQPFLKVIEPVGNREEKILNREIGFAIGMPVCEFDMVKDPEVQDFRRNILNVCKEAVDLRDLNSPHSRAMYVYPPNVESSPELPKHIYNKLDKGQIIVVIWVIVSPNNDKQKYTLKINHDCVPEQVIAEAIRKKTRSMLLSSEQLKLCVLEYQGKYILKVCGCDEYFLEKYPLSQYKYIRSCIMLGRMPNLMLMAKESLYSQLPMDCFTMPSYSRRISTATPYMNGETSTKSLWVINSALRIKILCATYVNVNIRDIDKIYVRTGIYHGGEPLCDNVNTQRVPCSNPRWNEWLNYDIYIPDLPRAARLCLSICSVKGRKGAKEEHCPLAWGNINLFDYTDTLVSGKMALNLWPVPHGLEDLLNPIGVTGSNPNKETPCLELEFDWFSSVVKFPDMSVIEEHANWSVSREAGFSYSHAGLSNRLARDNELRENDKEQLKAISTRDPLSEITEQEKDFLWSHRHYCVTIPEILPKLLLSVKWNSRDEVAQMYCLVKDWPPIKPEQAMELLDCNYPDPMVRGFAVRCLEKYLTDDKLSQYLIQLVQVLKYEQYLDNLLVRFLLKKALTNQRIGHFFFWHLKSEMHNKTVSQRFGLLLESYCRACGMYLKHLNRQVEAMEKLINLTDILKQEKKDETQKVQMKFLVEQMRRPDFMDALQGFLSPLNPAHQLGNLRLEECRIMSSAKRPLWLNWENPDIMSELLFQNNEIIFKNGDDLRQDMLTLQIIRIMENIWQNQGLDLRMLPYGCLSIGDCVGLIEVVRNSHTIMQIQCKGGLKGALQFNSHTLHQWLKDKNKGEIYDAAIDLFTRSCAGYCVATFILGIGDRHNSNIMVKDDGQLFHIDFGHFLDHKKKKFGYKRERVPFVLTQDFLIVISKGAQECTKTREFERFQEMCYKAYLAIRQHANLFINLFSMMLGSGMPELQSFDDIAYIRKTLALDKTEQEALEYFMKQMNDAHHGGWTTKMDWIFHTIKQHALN
Chain of PIK3CG (human) (P48736 whole entry, looked up): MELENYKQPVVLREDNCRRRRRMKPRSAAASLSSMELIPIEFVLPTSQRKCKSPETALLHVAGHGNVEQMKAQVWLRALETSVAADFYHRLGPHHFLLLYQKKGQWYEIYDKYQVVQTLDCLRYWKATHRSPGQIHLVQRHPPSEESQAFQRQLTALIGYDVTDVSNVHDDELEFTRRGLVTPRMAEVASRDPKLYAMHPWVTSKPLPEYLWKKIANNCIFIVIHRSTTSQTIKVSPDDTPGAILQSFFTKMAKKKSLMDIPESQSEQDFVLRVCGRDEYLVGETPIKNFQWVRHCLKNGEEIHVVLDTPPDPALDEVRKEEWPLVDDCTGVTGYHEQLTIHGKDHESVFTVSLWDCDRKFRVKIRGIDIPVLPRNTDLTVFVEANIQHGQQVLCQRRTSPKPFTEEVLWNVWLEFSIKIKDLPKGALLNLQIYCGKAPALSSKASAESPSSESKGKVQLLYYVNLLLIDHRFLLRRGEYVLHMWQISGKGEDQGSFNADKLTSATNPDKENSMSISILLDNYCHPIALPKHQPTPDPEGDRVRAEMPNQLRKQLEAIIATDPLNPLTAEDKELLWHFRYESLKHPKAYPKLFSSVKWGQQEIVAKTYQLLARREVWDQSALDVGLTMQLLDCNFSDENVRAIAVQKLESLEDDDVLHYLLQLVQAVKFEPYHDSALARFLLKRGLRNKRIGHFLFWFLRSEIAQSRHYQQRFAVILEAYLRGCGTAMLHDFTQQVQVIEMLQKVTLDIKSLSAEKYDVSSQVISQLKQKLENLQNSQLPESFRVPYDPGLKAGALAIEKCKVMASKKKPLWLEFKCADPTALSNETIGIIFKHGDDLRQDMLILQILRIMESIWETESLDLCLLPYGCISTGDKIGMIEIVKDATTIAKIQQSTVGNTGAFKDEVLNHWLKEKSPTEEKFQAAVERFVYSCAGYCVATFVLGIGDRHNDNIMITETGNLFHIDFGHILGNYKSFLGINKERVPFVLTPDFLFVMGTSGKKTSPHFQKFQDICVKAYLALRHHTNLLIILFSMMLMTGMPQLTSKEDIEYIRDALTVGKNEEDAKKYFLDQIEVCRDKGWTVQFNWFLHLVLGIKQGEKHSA

`O=C(Nc1ccc(-c2nc(N3CC4CCC(C3)O4)c3cnn([C@H]4CC[C@]5(CCCO5)CC4)c3n2)cc1)OCCO` came in with an IC50 at PIK3CG (human) of 2060 nM. With `CCn1ncc2c(N3CC4CCC(C3)O4)nc(-c3ccc(NC(=O)NC(=O)CCNCCN(C)C)cc3)nc21`, the values for the IC50 on PIK3CA (human) and against PIK3CG (human) were 1830 nM and 8110 nM, respectively. For the molecule `CN1CCN(c2ccc(NC(=O)Nc3ccc(-c4nc(N5CC6CCC(C5)O6)c5cnn([C@H]6CC[C@]7(CCCO7)CC6)c5n4)cc3)cc2)CC1`, the IC50 at PIK3CG (human) is 1450 nM. The same measure, in the same setting: as for `COC1CCC(n2ncc3c(N4CC5CCC(C4)O5)nc(-c4ccc(NC(=O)Nc5ccncc5)cc4)nc32)CC1` (stereo not given), the figure is 825 nM; as for `O=C(Nc1ccncc1)Nc1ccc(-c2nc(N3CC4CCC(C3)O4)c3cnn([C@H]4CC[C@]5(CCCO5)CC4)c3n2)cc1`, 2220 nM.

In turn, `O=C(Nc1ccc(-c2nc(N3CC4CCC(C3)O4)c3sccc3n2)cc1)NC1CC1` yielded a half-maximal inhibitory concentration (IC50) on PIK3CG (human) of 10000 nM. Still for that read-out and setting: as for `O=C(NCCO)Nc1ccc(-c2nc(N3CC4CCC(C3)O4)c3sccc3n2)cc1`, the figure is 10000 nM; as for `O=C(Nc1ccc(-c2nc(N3CC4CCC(C3)O4)c3cnn([C@H]4CC[C@]5(CCCO5)CC4)c3n2)cc1)Nc1ccc(N2CCNCC2)cc1`, 2020 nM. Consider `CN(C)CC(=O)Nc1ccc(NC(=O)Nc2ccc(-c3nc(N4CC5CCC(C4)O5)c4cnn(C)c4n3)cc2)cc1`, for which the values for the IC50 against PIK3CA (human) and on PIK3CG (human) were 346 nM and 1410 nM, respectively.

Take `CC(=O)Nc1ccc(NC(=O)Nc2ccc(-c3nc(N4CC5CCC(C4)O5)c4cnn(C)c4n3)cc2)cc1`: the results for the IC50 against PIK3CA (human) and on PIK3CG (human) were 1050 nM and 2720 nM, respectively. For `CCn1ncc2c(N3CC4CCC(C3)O4)nc(-c3ccc(NC(=O)NC(=O)CNCCN(C)C)cc3)nc21`, in that order: 311 nM and 494 nM.

A word on the IC50: it is the midpoint of a concentration-inhibition curve. The low end stands for inhibition by little substance, the high end for a need for much substance.
